In PubChem BioAssay (NCI):
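Dose response: 5 concentrations. Exposure: 48 h. Format: 96-well plates. Endpoint: linear interpolation; highest concentration if not reached. GI50 marks 50% less growth. TGI is the concentration that stops growth completely.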

How the values were obtained:
Experiment in all cases: NCI anticancer screen, dose series, 48 h
[1] = test system: SNB-75 CNS
[2] = test system: MDA-MB-435
[3] = test system: RPMI-8226 leukemia
[4] = test system: COLO 205 colon
[5] = test system: IGROV1 ovarian
[6] = test system: HCT-116 colon
[7] = test system: UACC-257 melanoma
[8] = test system: CCRF-CEM leukemia
[9] = test system: NCI/ADR-RES ovarian
[10] = test system: U251 CNS
[11] = test system: SK-MEL-5 melanoma
[12] = test system: HCC-2998 colon
[13] = test system: RXF 393 renal
[14] = test system: EKVX NSCLC
[15] = test system: M14 melanoma
[16] = test system: T-47D breast
[17] = test system: MDA-MB-231 breast
[18] = test system: KM12 colon
[19] = test system: MALME-3M melanoma
[20] = test system: UO-31 renal
[21] = test system: HS 578T breast
[22] = test system: 786-0 renal
[23] = test system: HOP-62 NSCLC
[24] = test system: PC-3 prostate
[25] = test system: ACHN renal
[26] = test system: A498 renal
[27] = test system: OVCAR-8 ovarian
[28] = test system: SF-268 CNS
[29] = test system: SW-620 colon
[30] = test system: SK-MEL-2 melanoma
[31] = test system: BT-549 breast
[32] = test system: SK-OV-3 ovarian
[33] = test system: A549 NSCLC
[34] = test system: HOP-92 NSCLC
[35] = test system: NCI-H460 lung
[36] = test system: UACC-62 melanoma
[37] = test system: SN12C renal
[38] = test system: MOLT-4 leukemia
[39] = test system: LOX IMVI melanoma
[40] = test system: OVCAR-4 ovarian
[41] = test system: MCF7 breast
[42] = test system: SNB-19 CNS
[43] = test system: OVCAR-5 ovarian
[44] = test system: SK-MEL-28 melanoma
[45] = test system: CAKI-1 renal
[46] = test system: HCT-15 colon
[47] = test system: NCI-H23 lung
[48] = test system: TK-10 renal
[49] = test system: HT29 colon
[50] = test system: K-562 leukemia
[51] = test system: OVCAR-3 ovarian
[52] = test system: SF-295 CNS
[53] = test system: NCI-H226 lung
[54] = test system: NCI-H522 lung
[55] = test system: SF-539 CNS
[56] = test system: DU-145 prostate

C=C1C(=O)O[C@H]2[C@H]1CC/C(CNC(=O)C(C)c1ccc(CC(C)C)cc1)=C\CC[C@@]1(C)O[C@@H]21 (stereo partly specified)
GI50 [1]: 1.34 µM | TGI [1]: 2.63 µM | GI50 [2]: 1.72 µM | TGI [2]: 3.76 µM | GI50 [3]: 2.29 µM | TGI [3]: 6.92 µM | GI50 [4]: 1.93 µM | TGI [4]: 3.83 µM | GI50 [5]: 1.59 µM | TGI [5]: 3.43 µM | GI50 [6]: 1.32 µM | TGI [6]: 2.92 µM | GI50 [7]: 1.56 µM | TGI [7]: 3.12 µM | GI50 [8]: 0.551 µM | TGI [8]: 7.49 µM | GI50 [9]: 2.07 µM | TGI [9]: 5.47 µM | GI50 [10]: 1.67 µM | TGI [10]: 3.1 µM | GI50 [11]: 1.71 µM | TGI [11]: 3.08 µM | GI50 [12]: 1.83 µM | TGI [12]: 3.38 µM | GI50 [13]: 1.31 µM | TGI [13]: 2.61 µM | GI50 [14]: 1.67 µM | TGI [14]: 3.22 µM | GI50 [15]: 1.85 µM | TGI [15]: 3.98 µM | GI50 [16]: 1.78 µM | TGI [16]: 4.79 µM | GI50 [17]: 1.96 µM | TGI [17]: 4 µM | GI50 [18]: 2.38 µM | TGI [18]: 5.65 µM | GI50 [19]: 1.71 µM | TGI [19]: 3.36 µM | GI50 [20]: 1.33 µM | TGI [20]: 2.6 µM | GI50 [21]: 2.24 µM | TGI [21]: 7.46 µM | GI50 [22]: 1.76 µM | TGI [22]: 3.36 µM | GI50 [23]: 3.07 µM | TGI [23]: 12.2 µM | GI50 [24]: 1.77 µM | TGI [24]: 3.82 µM | GI50 [25]: 1.45 µM | TGI [25]: 2.76 µM | GI50 [26]: 2.22 µM | TGI [26]: 8.38 µM | GI50 [27]: 1.88 µM | TGI [27]: 5.96 µM | GI50 [28]: 1.74 µM | TGI [28]: 3.58 µM | GI50 [29]: 1.69 µM | TGI [29]: 3.55 µM | GI50 [30]: 1.6 µM | TGI [30]: 3.18 µM | GI50 [31]: 1.8 µM | TGI [31]: 4.45 µM | GI50 [32]: 12.3 µM | TGI [32]: 24.8 µM | GI50 [33]: 2.37 µM | TGI [33]: 6.72 µM | GI50 [34]: 1.5 µM | TGI [34]: 2.92 µM | GI50 [35]: 1.94 µM | TGI [35]: 3.97 µM | GI50 [36]: 1.67 µM | TGI [36]: 3.38 µM | GI50 [37]: 1.63 µM | TGI [37]: 3.26 µM | GI50 [38]: 2.39 µM | TGI [38]: 9.66 µM | GI50 [39]: 1.45 µM | TGI [39]: 2.81 µM | GI50 [40]: 1.66 µM | TGI [40]: 3.13 µM | GI50 [41]: 1.62 µM | TGI [41]: 3.68 µM | GI50 [42]: 2.15 µM | TGI [42]: 5.67 µM | GI50 [43]: 1.92 µM | TGI [43]: 4.04 µM | GI50 [44]: 1.67 µM | TGI [44]: 3.32 µM | GI50 [45]: 1.69 µM | TGI [45]: 3.06 µM | GI50 [46]: 1.47 µM | TGI [46]: 3.25 µM | GI50 [47]: 1.67 µM | TGI [47]: 3.32 µM | GI50 [48]: 1.66 µM | TGI [48]: 3.02 µM | GI50 [49]: 1.79 µM | TGI [49]: 3.66 µM | GI50 [50]: 2.29 µM | TGI [50]: 10.4 µM | GI50 [51]: 1.54 µM | TGI [51]: 2.95 µM | GI50 [52]: 3.45 µM | TGI [52]: 14.7 µM | GI50 [53]: 1.66 µM | TGI [53]: 3.27 µM | GI50 [54]: 1.63 µM | TGI [54]: 3.5 µM | GI50 [55]: 1.58 µM | TGI [55]: 3.07 µM | GI50 [56]: 1.49 µM | TGI [56]: 2.85 µM

Cc1cc(C(=O)CC(Cl)=C(Cl)Cl)c(Cl)cc1Cl
GI50 [1]: 34.8 µM | TGI [1]: > 100 µM | GI50 [2]: 17.1 µM | TGI [2]: 43.1 µM | GI50 [3]: 16.6 µM | TGI [3]: 40.8 µM | GI50 [4]: 27.7 µM | TGI [4]: 86.1 µM | GI50 [5]: 22 µM | TGI [5]: 82.9 µM | GI50 [6]: 19.1 µM | TGI [6]: 33.2 µM | GI50 [7]: 19.5 µM | TGI [7]: 44.9 µM | GI50 [8]: 3.54 µM | TGI [8]: 27.3 µM | GI50 [9]: 33.5 µM | TGI [9]: > 100 µM | GI50 [10]: 18.6 µM | TGI [10]: 38.1 µM | GI50 [11]: 18 µM | TGI [11]: 39.9 µM | GI50 [13]: 17.8 µM | TGI [13]: 43.1 µM | GI50 [14]: 19 µM | TGI [14]: 47.7 µM | GI50 [15]: 31.7 µM | TGI [15]: 78.2 µM | GI50 [16]: 19.9 µM | TGI [16]: 44.2 µM | GI50 [17]: 23.4 µM | TGI [17]: 46.2 µM | GI50 [18]: 18.2 µM | TGI [18]: 42.1 µM | GI50 [19]: 14.3 µM | TGI [19]: 34.5 µM | GI50 [20]: 22.5 µM | TGI [20]: 55.4 µM | GI50 [21]: 30.3 µM | TGI [21]: 78.4 µM | GI50 [22]: 22.1 µM | TGI [22]: 42.1 µM | GI50 [23]: 21.2 µM | TGI [23]: 44.1 µM | GI50 [25]: 18.1 µM | TGI [25]: 39.4 µM | GI50 [26]: 18.2 µM | TGI [26]: 51.5 µM | GI50 [27]: 21.7 µM | TGI [27]: 46.3 µM | GI50 [28]: 20.9 µM | TGI [28]: 55.8 µM | GI50 [29]: 21.7 µM | TGI [29]: 52.3 µM | GI50 [30]: 51.2 µM | TGI [30]: > 100 µM | GI50 [31]: 20.2 µM | TGI [31]: 44.4 µM | GI50 [32]: 49.8 µM | TGI [32]: > 100 µM | GI50 [33]: 23.7 µM | TGI [33]: 65.9 µM | GI50 [35]: 23.8 µM | TGI [35]: 90.6 µM | GI50 [36]: 18.4 µM | TGI [36]: 39.3 µM | GI50 [37]: 19.5 µM | TGI [37]: 44.7 µM | GI50 [39]: 17.6 µM | TGI [39]: 33.8 µM | GI50 [40]: 27.6 µM | TGI [40]: 72.3 µM | GI50 [41]: 29.1 µM | TGI [41]: > 100 µM | GI50 [42]: 35.4 µM | TGI [42]: > 100 µM | GI50 [43]: 29.8 µM | TGI [43]: 79.8 µM | GI50 [44]: 33.5 µM | TGI [44]: > 100 µM | GI50 [45]: 18 µM | TGI [45]: 41.4 µM | GI50 [46]: 20 µM | TGI [46]: 41.2 µM | GI50 [47]: 18.6 µM | TGI [47]: 37.9 µM | GI50 [48]: 15.9 µM | TGI [48]: 32 µM | GI50 [49]: 34.6 µM | TGI [49]: > 100 µM | GI50 [50]: 20.7 µM | TGI [50]: 47.6 µM | GI50 [51]: 21.4 µM | TGI [51]: 54.1 µM | GI50 [52]: 19.9 µM | TGI [52]: 54.8 µM | GI50 [53]: 23.9 µM | TGI [53]: 76.3 µM | GI50 [54]: 22.6 µM | TGI [54]: 69.4 µM | GI50 [55]: 13.1 µM | TGI [55]: 29.9 µM | GI50 [56]: 16 µM | TGI [56]: 40.4 µM
